Values of other authors as cited in US20190209552A1, “PHARMACEUTICAL COMPOSITION OF [ (3-HYDROXY-4 -PYRON-2-YL) METHYL] -AMINE DERIVATIVES AND DNA DEMETHYLATING AGENTS AND THEIR USE AS ANTI-NEOPLASTIC DRUGS” (UNIVERSITA' DEGLI STUDI DI URBINO "CARLO BO", priority 2016, published 2019).

Legend:
Ewing's sarcoma [1] = system: Ewing's sarcoma
Ewing's sarcoma [2] = system: Ewing's sarcoma; remark: listed apart in the source

CN1CCN(Cc2occc(=O)c2O)CCN(C)CCN(Cc2occc(=O)c2O)CC1 [Maltonis, 4(N), 10(N)-bis [(3-hydroxy-4-Pyron-2-yl)methyl]-1,7-dimethyl-1,4,7,10tetraazacyclododecane]
efficacy in vitro (Ewing's sarcoma [1]): effective | efficacy in vivo (Ewing's sarcoma [2]): effective
